Measured values as given in ChEMBL document CHEMBL6078630, “Design, synthesis, and bioactivity investigation of novel cyclic lipopeptide antibiotics targeting top-priority multidrug-resistant gram-negative bacteria” (Eur J Med Chem, 2024).
Converted amounts (≈) assume the structure as drawn. Bridge positions count the residues as written; N and C are the ends. Square brackets hold non-standard residues; d marks the D form. Peptide text beside a SMILES is read from it. * marks the point of attachment. Heptanoyl(6-Me) = CC(C)CCCCC(=O)*; X1 = CC[C@H](C)CCCCC(=O)*; dDap = NC[C@@H](N)C(=O)O; Dab = NCC[C@H](N)C(=O)O

What was measured:
[1] = Renal cytotoxicity against HK-2 cells incubated for 72 hrs by CCK8 assay; format: toxicity, cell-based; settings: human
[2] = Nephrotoxicity against Sprague-Dawley rat assessed as increase in BUN level at 4 mg/kg, iv administered for 7 days by fully automated biochemistry analyzer XR200PLUS; format: toxicity, organism-based; settings: in vivo, 168 h, time 7 day
[3] = Acute toxicity in iv dosed Swiss mouse assessed as maximum tolerated dose measured after 24 hrs; format: organism-based; settings: in vivo
[4] = Nephrotoxicity against Sprague-Dawley rat assessed as increase in CRE level at 4 mg/kg, iv administered for 7 days by fully automated biochemistry analyzer XR200PLUS; format: toxicity, organism-based; settings: in vivo, 168 h, time 7 day
[5] = Protein binding in human plasma assessed as unbound fraction at 0.2 uM incubated for 6 hrs by LC-MS/MS analysis; format: ADME, cell-free
[6] = tested on: Acinetobacter baumannii; experiment: Antibacterial activity against carbapenem-resistant Acinetobacter baumannii clinical isolate ets30 assessed as inhibition of bacterial growth incubated for 24 hrs by CLSI protocol based broth microdilution method; format: functional
[7] = tested on: Pseudomonas aeruginosa; experiment: Antibacterial activity against carbapenem-resistant Pseudomonas aeruginosa clinical isolate ets84 assessed as inhibition of bacterial growth incubated for 24 hrs by CLSI protocol based broth microdilution method; format: functional
[8] = tested on: Klebsiella pneumoniae; experiment: Antibacterial activity against carbapenem-resistant Klebsiella pneumoniae clinical isolate KPN+19-15 assessed as inhibition of bacterial growth incubated for 16 to 20 hrs by CLSI protocol based broth microdilution method; format: functional; settings: time 16-20 hrs
[9] = tested on: Pseudomonas aeruginosa; experiment: Antibacterial activity against Pseudomonas aeruginosa ATCC 27853 assessed as inhibition of bacterial growth incubated for 16 to 20 hrs by CLSI protocol based broth microdilution method; format: functional; settings: time 16-20 hrs
[10] = tested on: Pseudomonas aeruginosa; experiment: Antibacterial activity against carbapenem-resistant Pseudomonas aeruginosa clinical isolate ets83 assessed as inhibition of bacterial growth incubated for 24 hrs by CLSI protocol based broth microdilution method; format: functional
[11] = tested on: Klebsiella pneumoniae; experiment: Antibacterial activity against carbapenem-resistant Klebsiella pneumoniae clinical isolate ets80 assessed as inhibition of bacterial growth incubated for 24 hrs by CLSI protocol based broth microdilution method; format: functional
[12] = tested on: Klebsiella pneumoniae; experiment: Antibacterial activity against carbapenem-resistant Klebsiella pneumoniae clinical isolate ets78 assessed as inhibition of bacterial growth incubated for 24 hrs by CLSI protocol based broth microdilution method; format: functional
[13] = tested on: Acinetobacter baumannii; experiment: Antibacterial activity against carbapenem-sensitive Acinetobacter baumannii clinical isolate 19-1 assessed as inhibition of bacterial growth incubated for 16 to 20 hrs by CLSI protocol based broth microdilution method; format: functional; settings: time 16-20 hrs
[14] = tested on: Escherichia coli; experiment: Antibacterial activity against Escherichia coli ATCC BAA-2523 assessed as inhibition of bacterial growth incubated for 16 to 20 hrs by CLSI protocol based broth microdilution method; format: functional; settings: time 16-20 hrs
[15] = tested on: Pseudomonas aeruginosa; experiment: Antibacterial activity against carbapenem-resistant Pseudomonas aeruginosa clinical isolate ets85 assessed as inhibition of bacterial growth incubated for 24 hrs by CLSI protocol based broth microdilution method; format: functional
[16] = tested on: Pseudomonas aeruginosa; experiment: Antibacterial activity against carbapenem-resistant Pseudomonas aeruginosa clinical isolate ets6 assessed as inhibition of bacterial growth incubated for 24 hrs by CLSI protocol based broth microdilution method; format: functional
[17] = tested on: Pseudomonas aeruginosa; experiment: Antibacterial activity against carbapenem-resistant Pseudomonas aeruginosa clinical isolate ets22 assessed as inhibition of bacterial growth incubated for 24 hrs by CLSI protocol based broth microdilution method; format: functional
[18] = tested on: Klebsiella pneumoniae; experiment: Antibacterial activity against carbapenem-resistant Klebsiella pneumoniae clinical isolate ets75 assessed as inhibition of bacterial growth incubated for 24 hrs by CLSI protocol based broth microdilution method; format: functional
[19] = tested on: Acinetobacter baumannii; experiment: Antibacterial activity against Acinetobacter baumannii NCTC 13304 (OXA-27) assessed as inhibition of bacterial growth incubated for 16 to 20 hrs by CLSI protocol based broth microdilution method; format: functional; settings: time 16-20 hrs
[20] = tested on: Pseudomonas aeruginosa; experiment: Antibacterial activity against carbapenem-resistant Pseudomonas aeruginosa clinical isolate ets104 assessed as inhibition of bacterial growth incubated for 24 hrs by CLSI protocol based broth microdilution method; format: functional
[21] = tested on: Pseudomonas aeruginosa; experiment: Antibacterial activity against carbapenem-resistant Pseudomonas aeruginosa clinical isolate ets15 assessed as inhibition of bacterial growth incubated for 24 hrs by CLSI protocol based broth microdilution method; format: functional
[22] = tested on: Klebsiella pneumoniae; experiment: Antibacterial activity against carbapenem-resistant Klebsiella pneumoniae clinical isolate ets74 assessed as inhibition of bacterial growth incubated for 24 hrs by CLSI protocol based broth microdilution method; format: functional
[23] = tested on: Klebsiella pneumoniae; experiment: Antibacterial activity against carbapenem-resistant Klebsiella pneumoniae clinical isolate ets40 assessed as inhibition of bacterial growth incubated for 24 hrs by CLSI protocol based broth microdilution method; format: functional
[24] = tested on: Klebsiella pneumoniae; experiment: Antibacterial activity against carbapenem-resistant Klebsiella pneumoniae clinical isolate ets26 assessed as inhibition of bacterial growth incubated for 24 hrs by CLSI protocol based broth microdilution method; format: functional
[25] = tested on: Pseudomonas aeruginosa; experiment: Antibacterial activity against carbapenem-resistant Pseudomonas aeruginosa clinical isolate 19-3 assessed as inhibition of bacterial growth incubated for 16 to 20 hrs by CLSI protocol based broth microdilution method; format: functional; settings: time 16-20 hrs
[26] = tested on: Klebsiella pneumoniae; experiment: Antibacterial activity against carbapenem-resistant Klebsiella pneumoniae clinical isolate ets77 assessed as inhibition of bacterial growth incubated for 24 hrs by CLSI protocol based broth microdilution method; format: functional
[27] = tested on: Pseudomonas aeruginosa; experiment: Antibacterial activity against carbapenem-resistant Pseudomonas aeruginosa clinical isolate ets49 assessed as inhibition of bacterial growth incubated for 24 hrs by CLSI protocol based broth microdilution method; format: functional
[28] = tested on: Acinetobacter baumannii; experiment: Antibacterial activity against carbapenem-resistant Acinetobacter baumannii clinical isolate ets104 assessed as inhibition of bacterial growth incubated for 24 hrs by CLSI protocol based broth microdilution method; format: functional
[29] = tested on: Pseudomonas aeruginosa; experiment: Antibacterial activity against carbapenem-resistant Pseudomonas aeruginosa clinical isolate ets33 assessed as inhibition of bacterial growth incubated for 24 hrs by CLSI protocol based broth microdilution method; format: functional
[30] = tested on: Acinetobacter baumannii; experiment: Antibacterial activity against carbapenem-resistant Acinetobacter baumannii clinical isolate ets178 assessed as inhibition of bacterial growth incubated for 24 hrs by CLSI protocol based broth microdilution method; format: functional
[31] = tested on: Escherichia coli; experiment: Antibacterial activity against carbapenem-resistant Escherichia coli clinical isolate 231016w014 assessed as inhibition of bacterial growth incubated for 24 hrs by CLSI protocol based broth microdilution method; format: functional
[32] = tested on: Escherichia coli; experiment: Antibacterial activity against carbapenem-resistant Escherichia coli clinical isolate 231112E006B assessed as inhibition of bacterial growth incubated for 24 hrs by CLSI protocol based broth microdilution method; format: functional
[33] = tested on: Escherichia coli; experiment: Antibacterial activity against carbapenem-resistant Escherichia coli ATCC BAA-2340 assessed as inhibition of bacterial growth incubated for 16 to 20 hrs by CLSI protocol based broth microdilution method; format: functional; settings: time 16-20 hrs
[34] = tested on: Klebsiella pneumoniae; experiment: Antibacterial activity against carbapenem-resistant Klebsiella pneumoniae ATCC BAA-1705 assessed as inhibition of bacterial growth incubated for 16 to 20 hrs by CLSI protocol based broth microdilution method; format: functional; settings: time 16-20 hrs
[35] = tested on: Klebsiella pneumoniae; experiment: Antibacterial activity against carbapenem-resistant Klebsiella pneumoniae clinical isolate ets45 assessed as inhibition of bacterial growth incubated for 24 hrs by CLSI protocol based broth microdilution method; format: functional
[36] = tested on: Acinetobacter baumannii; experiment: Antibacterial activity against carbapenem-resistant Acinetobacter baumannii clinical isolate ets123 assessed as inhibition of bacterial growth incubated for 24 hrs by CLSI protocol based broth microdilution method; format: functional
[37] = tested on: Pseudomonas aeruginosa; experiment: Antibacterial activity against carbapenem-resistant Pseudomonas aeruginosa clinical isolate ets55 assessed as inhibition of bacterial growth incubated for 24 hrs by CLSI protocol based broth microdilution method; format: functional
[38] = tested on: Escherichia coli; experiment: Antibacterial activity against carbapenem-resistant Escherichia coli clinical isolate 231109W005 assessed as inhibition of bacterial growth incubated for 24 hrs by CLSI protocol based broth microdilution method; format: functional
[39] = tested on: Pseudomonas aeruginosa; experiment: Antibacterial activity against carbapenem-resistant Pseudomonas aeruginosa clinical isolate ets38 assessed as inhibition of bacterial growth incubated for 24 hrs by CLSI protocol based broth microdilution method; format: functional
[40] = tested on: Acinetobacter baumannii; experiment: Antibacterial activity against carbapenem-resistant Acinetobacter baumannii clinical isolate ets171 assessed as inhibition of bacterial growth incubated for 24 hrs by CLSI protocol based broth microdilution method; format: functional
[41] = tested on: Pseudomonas aeruginosa; experiment: Antibacterial activity against carbapenem-resistant Pseudomonas aeruginosa clinical isolate ets5 assessed as inhibition of bacterial growth incubated for 24 hrs by CLSI protocol based broth microdilution method; format: functional

In the case of `CC(C)CCCCC(=O)N[C@@H](CCN)C(=O)N[C@H](C(=O)N[C@@H](CCN)C(=O)N[C@H]1CCNC(=O)[C@H]([C@@H](C)O)NC(=O)[C@H](CCN)NC(=O)[C@H](CCN)NC(=O)[C@H](CC(C)C)NC(=O)[C@@H](Cc2ccccc2)NC(=O)[C@H](CCN)NC1=O)[C@@H](C)O.CC[C@H](C)CCCCC(=O)N[C@@H](CCN)C(=O)N[C@H](C(=O)N[C@@H](CCN)C(=O)N[C@H]1CCNC(=O)[C@H]([C@@H](C)O)NC(=O)[C@H](CCN)NC(=O)[C@H](CCN)NC(=O)[C@H](CC(C)C)NC(=O)[C@@H](Cc2ccccc2)NC(=O)[C@H](CCN)NC1=O)[C@@H](C)O` (X1-[Dab]T[Dab][Dab][Dab][dF]L[Dab][Dab]T; lactam 4-C), the IC50 at 72 h [1] was 66.3 µg/mL, the Activity [2] was “Toxic” and the MTD at 24 h [3] was 5.4 mg/kg. The Activity [4] was “Toxic”.
With `CC(C)CCCCC(=O)N[C@@H](CCN)C(=O)N[C@H](C(=O)N[C@@H](CCN)C(=O)N[C@H]1CCNC(=O)[C@H]([C@@H](C)O)NC(=O)[C@H](CCN)NC(=O)[C@H](CCN)NC(=O)[C@H](CC(C)C)NC(=O)[C@@H](Cc2ccccc2)NC(=O)[C@H](CCN)NC1=O)[C@@H](C)O` ({Heptanoyl(6-Me)}-[Dab]T[Dab][Dab][Dab][dF]L[Dab][Dab]T; lactam 4-C) the fraction unbound at 6 h, 0.2 µM [5] was 0.099.
For `CC(C)CCCCC(=O)N[C@@H](CCN)C(=O)N[C@H](C(=O)N[C@H](CN)C(=O)N[C@H]1CCNC(=O)[C@H]([C@@H](C)O)NC(=O)[C@H](CCN)NC(=O)[C@H](CCN)NC(=O)[C@H]([C@@H](C)O)NC(=O)[C@@H](Cc2ccccc2)NC(=O)[C@H](CCN)NC1=O)[C@@H](C)O` ({Heptanoyl(6-Me)}-[Dab]T[dDap][Dab][Dab][dF]T[Dab][Dab]T; lactam 4-C), the IC50 at 72 h [1] was > 500 µg/mL, the MIC [6] was 2 µg/mL (≈ 1.72 µM) and the MIC [7] was 2 µg/mL (≈ 1.72 µM). For the same compound, the MIC [8] was ≤ 0.03 µg/mL, the MIC [9] was ≤ 0.03 µg/mL and the MIC [10] was 0.5 µg/mL (≈ 0.43 µM). For the same compound, the MIC [11] was 0.5 µg/mL (≈ 0.43 µM), the MIC [12] was 0.25 µg/mL (≈ 0.215 µM) and the MIC [13] was ≤ 0.03 µg/mL. The MIC [14] was ≤ 0.03 µg/mL, the MIC [15] was 0.5 µg/mL (≈ 0.43 µM) and the MIC [16] was 0.5 µg/mL (≈ 0.43 µM). For the same compound, the MIC [17] was 2 µg/mL (≈ 1.72 µM), the MIC [18] was 0.5 µg/mL (≈ 0.43 µM) and the MIC [19] was ≤ 0.03 µg/mL. For the same compound, the MIC [20] was 1 µg/mL (≈ 0.86 µM), the MIC [21] was 1 µg/mL (≈ 0.86 µM) and the MIC [22] was 0.5 µg/mL (≈ 0.43 µM). It also gave an MIC [23] of 0.125 µg/mL (≈ 0.107 µM), an MIC [24] of 0.5 µg/mL (≈ 0.43 µM) and an MIC [25] of 0.125 µg/mL (≈ 0.107 µM). For the same compound, the MIC [26] was 0.5 µg/mL (≈ 0.43 µM), the MIC [27] was < 0.06 µg/mL and the MIC [28] was 0.06 µg/mL (≈ 0.0516 µM). The MIC [29] was 4 µg/mL (≈ 3.44 µM), the MIC [30] was 1 µg/mL (≈ 0.86 µM) and the MIC [31] was < 0.06 µg/mL. The MIC [32] was < 0.06 µg/mL, the MIC [33] was ≤ 0.03 µg/mL and the MIC [34] was ≤ 0.03 µg/mL. It also gave an MIC [35] of 0.25 µg/mL (≈ 0.215 µM), an MIC [36] of 2 µg/mL (≈ 1.72 µM) and an MIC [37] of 1 µg/mL (≈ 0.86 µM). For the same compound, the MIC [38] was < 0.06 µg/mL, the MIC [39] was 0.5 µg/mL (≈ 0.43 µM) and the MIC [40] was 0.5 µg/mL (≈ 0.43 µM). For the same compound, the MIC [41] was 1 µg/mL (≈ 0.86 µM).
